Structures can show the parent of a compound that is named as a salt.
Target: Btk enzyme (His-Btk) (Homo sapiens (Human), UniProt Q06187)
Assay: Btk enzyme activity, IMAP fluorescence polarization assay (Assay Method A)
Details: not given

Btk enzyme (His-Btk), sequence (Q06187 whole entry): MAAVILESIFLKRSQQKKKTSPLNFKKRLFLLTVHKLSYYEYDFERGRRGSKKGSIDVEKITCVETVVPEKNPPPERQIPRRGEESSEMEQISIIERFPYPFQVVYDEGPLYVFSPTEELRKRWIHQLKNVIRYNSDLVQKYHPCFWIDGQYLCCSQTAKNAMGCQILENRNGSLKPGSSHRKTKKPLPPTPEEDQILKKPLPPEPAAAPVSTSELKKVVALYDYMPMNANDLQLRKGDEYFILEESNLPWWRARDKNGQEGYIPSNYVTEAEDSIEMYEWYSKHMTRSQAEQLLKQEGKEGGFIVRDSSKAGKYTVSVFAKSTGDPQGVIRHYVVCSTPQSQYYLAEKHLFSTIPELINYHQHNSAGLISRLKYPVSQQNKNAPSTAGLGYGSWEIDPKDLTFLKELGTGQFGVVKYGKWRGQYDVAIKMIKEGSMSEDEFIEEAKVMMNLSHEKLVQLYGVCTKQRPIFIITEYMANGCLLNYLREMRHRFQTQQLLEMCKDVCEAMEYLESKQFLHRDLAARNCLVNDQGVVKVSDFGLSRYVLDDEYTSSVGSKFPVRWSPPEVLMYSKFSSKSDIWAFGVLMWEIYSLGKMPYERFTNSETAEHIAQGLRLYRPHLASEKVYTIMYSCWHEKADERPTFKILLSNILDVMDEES

| Compound | EC50 [nM] |
| --- | --- |
| Nc1nccn2c([C@@H]3CCCN(C(=O)[C@H]4CC(=O)N4)C3)nc(-c3ccc(C(=O)Nc4cc(C(F)(F)F)ccn4)cc3)c12 [Example 87, 4-(8-amino-3-((R)-1-((R)-4-oxoazetidine-2-carbonyl)piperidin-3-yl)imidazo[1,5-a]pyrazin-1-yl)-N-(4-(trifluoromethyl)pyridin-2-yl)benzamide] | < 10 |
| Nc1nccn2c([C@@H]3CCCN(CC4CCOC4)C3)nc(-c3ccc(C(=O)Nc4cc(C5CC5)ccn4)cc3)c12 (stereo partly drawn) [Example 145, 4-(8-amino-3-((3R)-1-((tetrahydrofuran-3-yl)methyl)piperidin-3-yl)imidazo[1,5-a]pyrazin-1-yl)-N-(4-cyclopropylpyridin-2-yl)benzamide, TFA salt] | 10 to 100 |
| Nc1nccn2c([C@@H]3CCCN(C(=O)C4CC(F)(F)C4)C3)nc(-c3ccc(C(=O)Nc4cc(C(F)(F)F)ccn4)cc3)c12 [Example 83, (R)-4-(8-amino-3-(1-(3,3-difluorocyclobutanecarbonyl)piperidin-3-yl)imidazo[1,5-a]pyrazin-1-yl)-N-(4-(trifluoromethyl)pyridin-2-yl)benzamide] | < 10 |
| CSCCC(=O)N1C[C@H](c2nc(-c3ccc(C(=O)Nc4cc(C(F)(F)F)ccn4)cc3)c3c(N)nccn23)CC[C@H]1C (relative stereo) [Example 187, 4-(8-amino-3-((trans)-6-methyl-1-(3-(methylthio)propanoyl)piperidin-3-yl)imidazo[1,5-a]pyrazin-1-yl)-N-(4-(trifluoromethyl)pyridin-2-yl)benzamide, TFA salt] | 10 to 100 |
| Cc1nc(-c2ccc(C(=O)Nc3cc(C(F)(F)F)ccn3)cc2)c2c(N)ncc(C(=O)NCc3ccccc3)n12 [Example 292, 8-amino-N-benzyl-3-methyl-1-(4-(4-(trifluoromethyl)pyridin-2-ylcarbamoyl)phenyl)imidazo[1,5-a]pyrazine-5-carboxamide] | 100 to 1000 |
| Nc1nccn2c([C@@H]3CCCN(C(=O)C4CSC4)C3)nc(-c3ccc(C(=O)Nc4cc(C(F)(F)F)ccn4)cc3)c12 [Example 86, (R)-4-(8-amino-3-(1-(thietane-3-carbonyl)piperidin-3-yl)imidazo[1,5-a]pyrazin-1-yl)-N-(4-(trifluoromethyl)pyridin-2-yl)benzarnide] | < 10 |
| Nc1nccn2c([C@@H]3CCCN(C(=O)C4CCC4)C3)nc(-c3ccc(C(=O)Nc4cc(C5CC5)ccn4)cc3)c12 [Example 59, (R)-4-(8-amino-3-(1-(cyclobutanecarbonyl)piperidin-3-yl)imidazo[1,5-a]pyrazin-1-yl)-N-(4-cyclopropylpyridin-2-yl)benzamide] | < 10 |
| Nc1nccn2c([C@@H]3CCN(C(=O)C4CCOC4)C3)nc(-c3ccc(C(=O)Nc4ccccn4)cc3)c12 (stereo partly drawn) [Example 128, (R)-4-(8-amino-3-(1-(tetrahydrofuran-3-carbonyl)pyrrolidin-3-yl)imidazo[1,5-a]pyrazin-1-yl)-N-(pyridin-2-yl)benzamide, TFA salt] | 100 to 1000 |
| CC(C)C1CC(C(=O)N2CCC[C@@H](c3nc(-c4ccc(C(=O)Nc5cc(C(F)(F)F)ccn5)cc4)c4c(N)nccn34)C2)C1 (stereo partly drawn) [Example 89, (R)-4-(8-amino-3-(1-(3-isopropylcyclobutanecarbonyl)piperidin-3-yl)imidazo[1,5-a]pyrazin-1-yl)-N-(4-(trifluoromethyl)pyridin-2-yl)benzamide] | < 10 |
| CC(C)(C#N)C(=O)N1CCC[C@@H](n2nc(-c3ccc(C(=O)Nc4cc(C(F)(F)F)ccn4)cc3)c3c(N)ncnc32)C1 [Example 263, (R)-4-(4-amino-1-(1-(2-cyano-2-methylpropanoyl)piperidin-3-yl)-1H-pyrazolo[3,4-d]pyrimidin-3-yl)-N-(4-(trifluoromethyl)pyridin-2-yl)benzamide] | 10 to 100 |
| CC(C)C(=O)N1CCC[C@@H](n2nc(-c3ccc(C(=O)Nc4cc(C(F)(F)F)ccn4)cc3)c3c(N)ncnc32)C1 [Example 279, (R)-4-(4-amino-1-(1-isobutyrylpiperidin-3-yl)-1H-pyrazolo[3,4-d]pyrimidin-3-yl)-N-(4-(trifluoromethyl)pyridin-2-yl)benzamide] | 10 to 100 |
| CC(C)C(=O)N1CC[C@@H](c2nc(-c3ccc(C(=O)Nc4ccccn4)cc3)c3c(N)nccn23)C1 [Example 127, (R)-4-(8-amino-3-(1-isobutyrylpyrrolidin-3-yl)imidazo[1,5-a]pyrazin-1-yl)-N-(pyridin-2-yl)benzamide, TFA salt] | 100 to 1000 |
| N#Cc1ccnc(NC(=O)c2ccc(-c3nc(N4CCC4)n4ccnc(N)c34)cc2)c1 [Example 209, 4-(8-amino-3-(azetidin-1-yl)imidazo[1,5-a]pyrazin-1-yl)-N-(4-cyanopyridin-2-yl)benzamide] | 100 to 1000 |

Same assay, conditions: read-out: EC50 Btk activity values - Assay Method A; IMAP-FP, 60 min pre-incubation, 5 μM ATP; class 100-1000 is given as ≧100 nM-<1 μM

| Compound | EC50 [nM] |
| --- | --- |
| COC[C@H](C)NC(=O)C1CCCN(c2nc(-c3ccc(C(=O)Nc4cc(C5CC5)ccn4)cc3)c3c(N)nccn23)C1 (stereo partly drawn) [Example 241, 1-(8-amino-1-(4-(4-cyclopropylpyridin-2-ylcarbamoyl)phenyl)imidazo[1,5-a]pyrazin-3-yl)-N-((S)-1-methoxypropan-2-yl)piperidine-3-carboxamide, TFA salt] | < 10 |
| CCCc1ccnc(NC(=O)c2ccc(-c3nc([C@H]4CC[C@H](O)CC4)n4ccnc(N)c34)cc2OC)c1 [Example 11, 4-(8-amino-3-((trans)-4-hydroxycyclohexyl)imidazo[1,5-a]pyrazin-1-yl)-2-methoxy-N-(4-propylpyridin-2-yl)benzamide] | < 10 |
| CC(C)C(=O)N1C[C@H](c2nc(-c3ccc(C(=O)Nc4ccccn4)cc3)c3c(N)nccn23)CC[C@@H]1C (relative stereo) [Example 205, 4-(8-amino-3-((cis)-1-isobutyryl-6-methylpiperidin-3-yl)imidazo[1,5-a]pyrazin-1-yl)-N-(pyridin-2-yl)benzamide, TFA salt] | < 10 |
| CC1(C(=O)N[C@H]2CCCN(c3nc(-c4ccc(C(=O)Nc5cc(C(F)(F)F)ccn5)cc4)c4c(N)nccn34)C2)COC1 [Example 218, (S)-N-(1-(8-amino-1-(4-(4-(trifluoromethyl)pyridin-2-ylcarbamoyl)phenyl)imidazo [1,5-a]pyrazin-3-yl)piperidin-3-yl)-3-methyloxetane-3-carboxamide] | < 10 |
| CCOCCC(=O)N1CCC[C@@H](c2nc(-c3ccc(C(=O)Nc4cc(C(F)(F)F)ccn4)cc3)c3c(N)ncnn23)C1 [Example 259, (R)-4-(4-amino-7-(1-(3-ethoxypropanoyl)piperidin-3-yl)imidazo[1,5-f][1,2,4]triazin-5-yl)-N-(4-(trifluoromethyl)pyridin-2-yl)benzamide] | < 10 |
| Nc1nccn2c(N3CCCC(C(=O)NCC4CC4)C3)nc(-c3ccc(C(=O)Nc4cc(C5CC5)ccn4)cc3)c12 (stereo not shown) [Example 245, 1-(8-amino-1-(4-(4-cyclopropylpyridin-2-ylcarbamoyl)phenyl)imidazo[1,5-a]pyrazin-3-yl)-N-(cyclopropylmethyl)piperidine-3-carboxamide, TFA salt] | < 10 |
| CO[C@H]1CC[C@@H](c2nc(-c3ccc(C(=O)Nc4cc(C(F)(F)F)ccn4)cc3)c3c(N)nccn32)CC1 [Example 40, 4-(8-amino-3-((cis)-4-methoxycyclohexyl)imidazo [1,5-a]pyrazin-1-yl)-N-(4-(trifluoromethyl)pyridin-2-yl)benzarnide] | < 10 |
| CC(C)C(=O)N1CCC[C@@H](c2nc(-c3ccc(C(=O)Nc4cc(C#N)ccn4)cc3)c3c(N)nccn23)C1 [Example 100, (R)-4-(8-amino-3-(1-isobutyrylpiperidin-3 yl)imidazo[1,5-a]pyrazin-1-yl)-N-(4-cyanopyridin-2-yl)benzamide] | < 10 |
| COCCOCCOCCOCCC(=O)N1CCC[C@@H](n2nc(-c3ccc(C(=O)Nc4cc(C(F)(F)F)ccn4)cc3)c3c(N)ncnc32)C1 [Example 264, (R)-4-(1-(1-2,5,8,11-tetraoxatetradecanepiperidin-3-yl)-4-amino-1H-pyrazolo[3,4-d]pyrimidin-3-yl)-N-(4-(trifluoromethyl)pyridin-2-yl)benzamide] | < 10 |
| CCOCCC(=O)N1C[C@H](c2nc(-c3ccc(C(=O)Nc4cc(C(F)(F)F)ccn4)cc3)c3c(N)nccn23)CC[C@@H]1C (relative stereo) [Example 189, 4-(8-amino-3-((cis)-1-(3-ethoxypropanoyl)-6-methylpiperidin-3-yl)imidazo[1,5-a]pyrazin-1-yl)-N-(4-(trifluoromethyl)pyridin-2-yl)benzamide, TFA salt] | < 10 |
| C[C@H]1CC[C@@H](c2nc(-c3ccc(C(=O)Nc4cc(C5CC5)ccn4)cc3)c3c(N)nccn23)CN1C(=O)CN1CCOC1=O (relative stereo) [Example 196, 4-(8-amino-3-((cis)-6-methyl-1-(2-(2-oxooxazolidin-3-yl)acetyl)piperidin-3-yl)imidazo[1,5-a]pyrazin-1-yl)-N-(4-cyclopropylpyridin-2-yl)benzamide, TFA salt] | < 10 |
| C[C@H]1CC[C@@H](c2nc(-c3ccc(C(=O)Nc4cc(C(F)(F)F)ccn4)cc3)c3c(N)nccn23)CN1C(=O)C1CC1 (relative stereo) [Example 202, 4-(8-amino-3-((cis)-1-(cyclopropanecarbonyl)-6-methylpiperidin-3-yl)imidazo[1,5-a]pyrazin-1-yl)-N-(4-(trifluoromethyl)pyridin-2-yl)benzamide, TFA salt] | < 10 |
| N#Cc1ccnc(NC(=O)c2ccc(-c3nc(C4CCc5[nH]nc(C6CC6)c5C4)n4ccnc(N)c34)cc2)c1 (stereo not shown) [Example 249, 4-(8-amino-3-(3-cyclopropyl-4,5,6,7-tetrahydro-1H-indazol-5-yl)imidazo[1,5-a]pyrazin-1-yl)-N-(4-cyanopyridin-2-yl)benzamide, TFA salt] | < 10 |
| CCC(=O)C(=O)N1CCC[C@@H](c2nc(-c3ccc(C(=O)Nc4cc(C5CC5)ccn4)cc3)c3c(N)nccn23)C1 [Example 114, (R)-4-(8-amino-3-(1-(2-oxobutanoyl)piperidin-3 yl)imidazo[1,5-a]pyrazin-1-yl)-N-(4-cyclopropylpyridin-2-yl)benzamide] | < 10 |
| CCCc1ccnc(NC(=O)c2ccc(-c3nc(N4CCOCC4)n4ccnc(N)c34)cc2)c1 [Example 212, 4-(8-amino-3-morpholinoimidazo[1,5-a]pyrazin-1-yl)-N-(4-propylpyridin-2-yl)benzamide] | < 10 |
